According to the supplement of paper PMC4862054:
“And” between values parts separate entries of the source, which are not always exact repeats. Identical values can stand only once.

Columns and labels:
BT-474 [1] = experiment: drug sensitivity score (DSS), CellTox Green (DSS (AUC-based score)); higher = stronger drug effect (viability inhibition or cytotoxicity); extreme values may be limits of the assay; conditions: incubation time: 72 h
Outline: (§1)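 The drug sensitivity score reflects the area under a fitted dose-response curve. To obtain it, breast cancer cells in 20 µl suspension were seeded into 384-well plates containing compound at 5 concentrations, 10-fold apart over a compound-specific 10,000-fold range, and incubated 72 h. CellTox Green fluorescence (485/520 nm) was read first and CellTiter-Glo luminescence second, after 10 min at room temperature. Each plate was normalised to 0.1 % DMSO and a positive kill control.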

BT-549 [2] = experiment: as above; conditions: incubation time: 72 h
Outline: as §1

CAL-120 [3] = experiment: as above; conditions: incubation time: 72 h
Outline: as §1

CAL-148 [4] = experiment: as above; conditions: incubation time: 72 h
Outline: as §1

CAL-85-1 [5] = experiment: as above; conditions: incubation time: 72 h
Outline: as §1

DU-4475 [6] = experiment: as above; conditions: incubation time: 72 h
Outline: as §1

HCC1143 [7] = experiment: as above; conditions: incubation time: 72 h
Outline: as §1

HCC1937 [8] = experiment: as above; conditions: incubation time: 72 h
Outline: as §1

MDA-MB-231 [9] = experiment: as above; conditions: incubation time: 72 h
Outline: as §1

MDA-MB-453 [10] = experiment: as above; conditions: incubation time: 72 h
Outline: as §1

MFM-223 [11] = experiment: as above; conditions: incubation time: 72 h
Outline: as §1

BT-474 [12] = experiment: normalised viability (% of control), CellTiter-Blue; higher = more viable cells (about 100 = DMSO control); conditions: 100 nM; incubation time: 72 h
Protocol: (§2)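 DSRT, CellTiter-Blue viability, 72 h incubation. Signal is normalised to DMSO and benzethonium chloride controls. Value is the normalised response at dose 3.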

BT-549 [13] = experiment: as above; conditions: 100 nM; incubation time: 72 h
Protocol: as §2

CAL-120 [14] = experiment: as above; conditions: 100 nM; incubation time: 72 h
Protocol: as §2

CAL-148 [15] = experiment: as above; conditions: 10 nM; incubation time: 72 h
Protocol: as §2

CAL-51 = experiment: as above; conditions: 10 nM; incubation time: 72 h
Protocol: as §2

CAL-85-1 [16] = experiment: as above; conditions: 10 nM; incubation time: 72 h
Protocol: as §2

DU-4475 [17] = experiment: as above; conditions: 10 nM; incubation time: 72 h
Protocol: as §2

HCC1599 = experiment: as above; conditions: 100 nM; incubation time: 72 h
Protocol: as §2

HCC1937 [18] = experiment: as above; conditions: 100 nM; incubation time: 72 h
Protocol: as §2

HDQ-P1 = experiment: as above; conditions: 10 nM; incubation time: 72 h
Protocol: as §2

Hs578T = experiment: as above; conditions: 100 nM; incubation time: 72 h
Protocol: as §2

MDA-MB-231 [19] = experiment: as above; conditions: 100 nM; incubation time: 72 h
Protocol: as §2

MDA-MB-436 = experiment: as above; conditions: 100 nM; incubation time: 72 h
Protocol: as §2

MDA-MB-453 [20] = experiment: as above; conditions: 10 nM; incubation time: 72 h
Protocol: as §2

MDA-MB-468 = experiment: as above; conditions: 100 nM; incubation time: 72 h
Protocol: as §2

MFM-223 [21] = experiment: as above; conditions: 100 nM; incubation time: 72 h
Protocol: as §2

SK-BR-3 = experiment: as above; conditions: 100 nM; incubation time: 72 h
Protocol: as §2

HCC1143 [22] = experiment: as above; conditions: 100 nM; incubation time: 72 h
Protocol: as §2

## CC(C)(C)Cn1c(N)nc2ccc(-c3[nH]c(C(C)(C)C)nc3-c3ccc(F)cc3)nc21
BT-474 [1]
  drug sensitivity score: 0
BT-549 [2]
  drug sensitivity score: 0
CAL-120 [3]
  drug sensitivity score: 0.748
CAL-148 [4]
  drug sensitivity score: 0
CAL-85-1 [5]
  drug sensitivity score: 4.77
DU-4475 [6]
  drug sensitivity score: 0
HCC1143 [7]
  drug sensitivity score: 0
HCC1937 [8]
  drug sensitivity score: 0
MDA-MB-231 [9]
  drug sensitivity score: 0.996
MDA-MB-453 [10]
  drug sensitivity score: 0
MFM-223 [11]
  drug sensitivity score: 0

## Cn1cc(C[C@@H](N)C(=O)O)c2ccccc21 [1-methyl-D-tryptophan]
BT-474 [1]
  drug sensitivity score: 0
BT-549 [2]
  drug sensitivity score: 0
CAL-120 [3]
  drug sensitivity score: 0
CAL-148 [4]
  drug sensitivity score: 0
CAL-85-1 [5]
  drug sensitivity score: 0
DU-4475 [6]
  drug sensitivity score: 0
HCC1143 [7]
  drug sensitivity score: 0
HCC1937 [8]
  drug sensitivity score: 0
MDA-MB-231 [9]
  drug sensitivity score: 0
MDA-MB-453 [10]
  drug sensitivity score: 0
MFM-223 [11]
  drug sensitivity score: 0

## CC[C@H](CC#N)OC(=O)N[C@@H](C)c1cccc(NC(=O)Nc2ccc(-c3cnco3)c(OC)c2)c1 [AVN944]
BT-474 [1]
  drug sensitivity score: 0
BT-549 [2]
  drug sensitivity score: 0
CAL-120 [3]
  drug sensitivity score: 0
CAL-148 [4]
  drug sensitivity score: 0
CAL-85-1 [5]
  drug sensitivity score: 0
DU-4475 [6]
  drug sensitivity score: 0
HCC1143 [7]
  drug sensitivity score: 0
HCC1937 [8]
  drug sensitivity score: 0
MDA-MB-231 [9]
  drug sensitivity score: 0
MDA-MB-453 [10]
  drug sensitivity score: 0
MFM-223 [11]
  drug sensitivity score: 0

## CCCCCOC(=O)Nc1nc(=O)n([C@@H]2O[C@H](C)[C@@H](O)[C@H]2O)cc1F [Capecitabine]
BT-474 [12]
  normalised viability: 114% and 99.9%
BT-549 [13]
  normalised viability: 103% and 97.5%
CAL-120 [14]
  normalised viability: 85.3% and 95.2%
CAL-148 [15]
  normalised viability: 86.9% and 94.2%
CAL-51
  normalised viability: 110% and 102%
CAL-85-1 [16]
  normalised viability: 96.7% and 98.3%
DU-4475 [17]
  normalised viability: 97.4% and 107%
HCC1599
  normalised viability: 123% and 106%
HCC1937 [18]
  normalised viability: 86.1% and 80.9%
HDQ-P1
  normalised viability: 106% and 91.4%
Hs578T
  normalised viability: 83.7% and 96.8%
MDA-MB-231 [19]
  normalised viability: 98.2% and 87%
MDA-MB-436
  normalised viability: 95.8% and 95.6%
MDA-MB-453 [20]
  normalised viability: 94.8% and 93.2%
MDA-MB-468
  normalised viability: 101% and 111%
MFM-223 [21]
  normalised viability: 87.7% and 104%
SK-BR-3
  normalised viability: 77.5% and 96.3%
BT-474 [1]
  drug sensitivity score: 0
BT-549 [2]
  drug sensitivity score: 0
CAL-120 [3]
  drug sensitivity score: 0
CAL-148 [4]
  drug sensitivity score: 0
CAL-85-1 [5]
  drug sensitivity score: 0
DU-4475 [6]
  drug sensitivity score: 0
HCC1143 [7]
  drug sensitivity score: 0
HCC1937 [8]
  drug sensitivity score: 0
MDA-MB-231 [9]
  drug sensitivity score: 0
MDA-MB-453 [10]
  drug sensitivity score: 0
MFM-223 [11]
  drug sensitivity score: 3.74

## CCc1cnn2c(NCc3ccc[n+]([O-])c3)cc(N3CCCC[C@H]3CCO)nc12 [Dinaciclib]
BT-474 [1]
  drug sensitivity score: 3.72
BT-549 [2]
  drug sensitivity score: 0
CAL-120 [3]
  drug sensitivity score: 1.4
CAL-148 [4]
  drug sensitivity score: 9.14
CAL-85-1 [5]
  drug sensitivity score: 18.4
DU-4475 [6]
  drug sensitivity score: 0
HCC1143 [7]
  drug sensitivity score: 0
HCC1937 [8]
  drug sensitivity score: 0
MDA-MB-231 [9]
  drug sensitivity score: 25.4
MDA-MB-453 [10]
  drug sensitivity score: 0
MFM-223 [11]
  drug sensitivity score: 13.1

## Cc1c(C(=O)Nc2ccc(N3C[C@@H](C)O[C@@H](C)C3)nc2)cccc1-c1ccc(OC(F)(F)F)cc1 [Erismodegib]
BT-474 [1]
  drug sensitivity score: 0
BT-549 [2]
  drug sensitivity score: 0
CAL-120 [3]
  drug sensitivity score: 0
CAL-148 [4]
  drug sensitivity score: 2.18
CAL-85-1 [5]
  drug sensitivity score: 0
DU-4475 [6]
  drug sensitivity score: 0
HCC1143 [7]
  drug sensitivity score: 0
HCC1937 [8]
  drug sensitivity score: 0
MDA-MB-231 [9]
  drug sensitivity score: 0.0859
MDA-MB-453 [10]
  drug sensitivity score: 0
MFM-223 [11]
  drug sensitivity score: 0

## CC(C)C(=O)Nc1ccc([N+](=O)[O-])c(C(F)(F)F)c1 [Flutamide]
BT-474 [12]
  normalised viability: 115%
BT-549 [13]
  normalised viability: 85.8%
CAL-120 [14]
  normalised viability: 101%
CAL-148 [15]
  normalised viability: 99.3%
CAL-51
  normalised viability: 112%
CAL-85-1 [16]
  normalised viability: 100%
DU-4475 [17]
  normalised viability: 92.6%
HCC1143 [22]
  normalised viability: 85.3%
HCC1599
  normalised viability: 86.8%
HCC1937 [18]
  normalised viability: 108%
HDQ-P1
  normalised viability: 113%
Hs578T
  normalised viability: 92%
MDA-MB-231 [19]
  normalised viability: 129%
MDA-MB-436
  normalised viability: 105%
MDA-MB-453 [20]
  normalised viability: 98.8%
MDA-MB-468
  normalised viability: 96.9%
MFM-223 [21]
  normalised viability: 90%
SK-BR-3
  normalised viability: 93.3%
BT-474 [1]
  drug sensitivity score: 0
BT-549 [2]
  drug sensitivity score: 0
CAL-120 [3]
  drug sensitivity score: 0
CAL-85-1 [5]
  drug sensitivity score: 0
DU-4475 [6]
  drug sensitivity score: 0
HCC1143 [7]
  drug sensitivity score: 0
HCC1937 [8]
  drug sensitivity score: 0
MDA-MB-231 [9]
  drug sensitivity score: 0
MDA-MB-453 [10]
  drug sensitivity score: 0
MFM-223 [11]
  drug sensitivity score: 0

## COc1cc(Nc2ncc(F)c(Nc3ccc4c(n3)N(COP(=O)(O)O)C(=O)C(C)(C)O4)n2)cc(OC)c1OC [Fostamatinib]
BT-474 [1]
  drug sensitivity score: 0
BT-549 [2]
  drug sensitivity score: 11.4
CAL-120 [3]
  drug sensitivity score: 0
CAL-148 [4]
  drug sensitivity score: 0
CAL-85-1 [5]
  drug sensitivity score: 6.03
DU-4475 [6]
  drug sensitivity score: 0
HCC1143 [7]
  drug sensitivity score: 0
HCC1937 [8]
  drug sensitivity score: 0
MDA-MB-231 [9]
  drug sensitivity score: 11.1
MDA-MB-453 [10]
  drug sensitivity score: 0
MFM-223 [11]
  drug sensitivity score: 0

## CC(C)NC[C@@H](C(=O)N1CCN(c2ncnc3c2[C@H](C)C[C@H]3O)CC1)c1ccc(Cl)cc1 [GDC-0068]
BT-474 [1]
  drug sensitivity score: 0.545
BT-549 [2]
  drug sensitivity score: 0
CAL-120 [3]
  drug sensitivity score: 0
CAL-148 [4]
  drug sensitivity score: 14.1
CAL-85-1 [5]
  drug sensitivity score: 0
DU-4475 [6]
  drug sensitivity score: 0
HCC1143 [7]
  drug sensitivity score: 0
HCC1937 [8]
  drug sensitivity score: 0
MDA-MB-231 [9]
  drug sensitivity score: 0
MDA-MB-453 [10]
  drug sensitivity score: 0
MFM-223 [11]
  drug sensitivity score: 1.29

## CCCc1cc(C)[nH]c(=O)c1CNC(=O)c1cc(-c2ccnc(N3CCN(C)CC3)c2)cc2c1cnn2C(C)C [GSK343]
BT-474 [1]
  drug sensitivity score: 5.28
BT-549 [2]
  drug sensitivity score: 0
CAL-120 [3]
  drug sensitivity score: 0
CAL-148 [4]
  drug sensitivity score: 0
CAL-85-1 [5]
  drug sensitivity score: 2.18
DU-4475 [6]
  drug sensitivity score: 0
HCC1143 [7]
  drug sensitivity score: 0
HCC1937 [8]
  drug sensitivity score: 0
MDA-MB-231 [9]
  drug sensitivity score: 7.22
MDA-MB-453 [10]
  drug sensitivity score: 6.47
MFM-223 [11]
  drug sensitivity score: 7.62

## COc1cc2c(cc1-c1c(C)noc1C)ncc1[nH]c(=O)n([C@H](C)c3ccccn3)c12 [I-BET151]
BT-474 [1]
  drug sensitivity score: 0
BT-549 [2]
  drug sensitivity score: 0
CAL-120 [3]
  drug sensitivity score: 0
CAL-148 [4]
  drug sensitivity score: 0
CAL-85-1 [5]
  drug sensitivity score: 5.11
DU-4475 [6]
  drug sensitivity score: 0.559
HCC1143 [7]
  drug sensitivity score: 0
HCC1937 [8]
  drug sensitivity score: 0
MDA-MB-231 [9]
  drug sensitivity score: 1.07
MDA-MB-453 [10]
  drug sensitivity score: 0
MFM-223 [11]
  drug sensitivity score: 0
